Measured values from patent US20260232644A1, “Compositions Comprising an Inhibitor of Galectin-3” (University of Liverpool, priority 2023, published 2026).
Structures can show the parent of a compound that is named as a salt.

Columns and labels:
[1] = tested on: human melanoma ACA19 cells; assay: ACA19 cell invasion through HUVECs (transwell); assay type: cell-based; conditions: compound 20 μM, transwells
Protocol: (§1) HUVECs were plated at a density of 1.5×10^4 cells in 8 μm pore transwells in 24-well plate and cultured for three days to allow formation of tight monolayer. The integrity of HUVEC monolayer was confirmed by measuring TEER and only monolayers with TEER reading>800 Ω/cm^2 were used for the invasion assay. AGA19+ or SW620 cell suspension (5×10^5 cells/ml in DMEM) was introduced with 5 μl/ml fluorescent cell labelling solution DiL for 30 min at 37° C. The fluorescence labelled cells were washed twice with PBS and resuspended into 1×10^5 cells/ml in DMEM. The cancer cell suspension was then incubated with or without galectin-3 (2 μg/ml) or various concentrations of the compound inhibitors or lactose at 37° C. for 20 min before introduction to the HUVEC monolayers for 24 hr at 37° C. The cells at the upper side of the trans-well inserts were gently removed with cotton swabs. The cells migrated to the bottom side of the transwells were fixed with 2% paraformaldehyde for 10 min. The trans-well membrane was removed and placed on glass slides. After addition of fluorescence mounting medium containing DAPI, the fluorescence labelled cells on the membrane were quantified under a fluorescence microscope.

[2] = tested on: human colon cancer SW620 cells; assay: LDH release cytotoxicity assay, SW620; assay type: cell-based
Protocol: (§2) SW620 cells (5×10^4 cells/ml) were seeded into 96-well plate in DMEM (and incubated at 37° C. 5% CO2 for 24 hr. HUVECs (1.0×10^5 cells/ml) was seeded in EBM medium and incubated for 24-36 hr until they formed a monolayer. Compound inhibitors at different concentrations were then introduced to the cells (10× lysis buffer was included as maximum LDH activity control) for 24 hr. The culture medium was transferred to a new plate and was mixed with equal volume of reaction mixture provided in the kit for 30 min at room temperature before the absorbance was measured at 490 nm (reference 680 nm) by a spectrophotometer.

[3] = tested on: human colon cancer SW620 cells; assay: Galectin-3-mediated SW620 cell adhesion to HUVECs; assay type: cell-based; conditions: Galectin-3 2 μg/ml, various concentrations
Protocol: HUVEC cells at 1×10^5 cells/ml in EGM medium were seeded into 24 well plates pre-inserted with 13 mm glass coverslip. The cells were incubated at 37° C. at 5% CO2 for 24 hr for monolayer formation. AGA19+ or SW620 cell suspension (5×10^5 cells/ml in DMEM) was introduced with 5 μl/ml fluorescent cell labelling solution DiL for 30 min at 37° C. The fluorescent labelled cells were washed twice with PBS and resuspended into 1×10^5 cells/ml in DMEM. The cancer cell suspension was then introduced with galectin-3 (2 μg/ml) and various concentrations of the compound inhibitors at 37° C. for 1 hr. The wells were carefully washed twice with PBS to remove the non-adhesion cells before the cells in the wells were fixed with 2% paraformaldehyde for 10 min. The glass coverslip was carefully removed from the plate, placed on a glass slide. After addition of fluorescence mounting medium containing DAPI, fluorescence labelled cells were quantified under a fluorescence microscope.

full-length galectin-3 = target: T1, full-length galectin-3 (Homo sapiens, UniProt P17931); assay: Tryptophan Fluorescence Spectroscopy (TFS) binding affinity, full-length Galectin-3
T1 construct: made in house; host or cells: E. coli
Protocol: The binding affinity of the inhibitors to galectin-3 was determined by Intrinsic Tryptophan Fluorescence Spectroscopy (TFS) exactly as we described recently [Sindrewicz, P., et al., Intrinsic tryptophan fluorescence spectroscopy reliably determines galectin-ligand interactions. Sci Rep, 2019. 9(1): p. 11851]. The Galectin-3 concentration used was 10 μM and the inhibitor titration concentrations were from 0 to 224 μM. DMSO/control buffer (PBS with 2 mM EDTA) titrations were performed and used for background subtraction.

Galectin-2 = target: T2, Galectin-2 (Homo sapiens, UniProt P05162); assay: Galectin-2 binding to asialofetuin ELISA; conditions: Gal-2 5 μg/ml, ASF 20 μg/ml
T2 construct: made in house; host or cells: E. coli
T2 sequence (P05162 1-132): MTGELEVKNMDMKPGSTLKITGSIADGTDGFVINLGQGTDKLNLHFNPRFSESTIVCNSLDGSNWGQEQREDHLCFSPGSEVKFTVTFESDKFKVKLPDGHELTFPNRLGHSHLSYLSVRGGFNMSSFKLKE
Protocol: Effect of the inhibitors on galectin binding to its ligand asialo fetuin (ASF) was measured by galectin ELISA. Nanty-six well plates were coated overnight with 20 μg/ml ASF in coating buffer (15 mM Na2CO3 17 mM NaHCO3 pH 9.6.). The wells were washed twice with PBS and incubated with blocking buffer (1% BSA in PBS) for 1 hr. The supernatants were removed and replaced with 5 μg/ml recombinant human galectin without or with different concentrations of the compound inhibitors or lactose in blocking buffer for 1 hr at room temperature. The wells were washed and incubated with 1 μg/ml anti-galectin antibody for 2 hr. Following addition of HRP-conjugated secondary antibody for 1 hr, FAST OPD development solution was added for 15-20 minutes. The reaction was terminated by addition of 4M sulphuric acid. The plates were read at 492 nm (reference wavelength 595 nm) by a microplate reader.

[4] = tested on: human colon cancer SW620 cells; assay: SW620 cell invasion through HUVECs (transwell); assay type: cell-based; conditions: compound 20 μM, transwells
Protocol: as §1, with “The cancer cell suspension was then incubated with or without galectin-3 (2 μg/ml) or various concentrations of the compound inhibitors or lactose at 37° C. for 20 min before introduction to the HUVEC monolayers for 24 hr at 37° C.” left out

[5] = tested on: human umbilical vein endothelial cells (HUVECs); assay: Vascular cell tubule formation (angiogenesis); assay type: cell-based; conditions: Galectin-3 2 μg/ml, compound 10 μM
Protocol: Matrigel matrix (50 μl) was added to 96-well plates for 60 min at 37° C. to allow gel formation. HUVEC cells (1×10^5 cells/ml in 1:1 EGM/EBM2 media) was introduced to the plates without or with galectin-3 (2 μg/ml) or different concentrations of compound inhibitors for 24 hr at 37° C. Endothelial cell tube formation was examined with Laser Microscope. The total number of branching points and the sum of the lengths of tubes were measured.

vascular HUVECs = assay: LDH release cytotoxicity assay, HUVECs; assay type: cell-based, human
Protocol: as §2

T1 sequence (P17931 whole entry): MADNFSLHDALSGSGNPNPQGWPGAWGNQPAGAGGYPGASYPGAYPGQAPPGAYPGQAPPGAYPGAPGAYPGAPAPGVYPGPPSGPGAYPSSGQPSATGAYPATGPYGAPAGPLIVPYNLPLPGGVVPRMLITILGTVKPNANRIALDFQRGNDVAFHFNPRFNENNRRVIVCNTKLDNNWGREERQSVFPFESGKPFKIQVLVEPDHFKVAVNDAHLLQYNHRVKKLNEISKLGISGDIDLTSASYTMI

Compound: NC1CCN(c2nc3c(cc2F)c(=O)c(C(=O)O)cn3-c2ccc(F)cc2F)C1 (centres unmarked) [Formula X, Tosufloxacin tosylate]
- Inhibition of Galectin-3-mediated invasion of ACA19 cells through HUVECs [1]: significant inhibition
- Cytotoxicity to SW620 cells (LDH release) ([2]; at 100 μM): no detectable cytotoxicity
- Cytotoxicity to SW620 cells (LDH release) ([2]; various concentrations): low cytotoxicity
- Inhibition of SW620 cell adhesion to HUVECs [3]: dose-dependent inhibition
- Kd (full-length galectin-3): 5 to 7 µM
- Effect on Galectin-2 binding to asialofetuin (Galectin-2): does not affect binding
- Inhibition of galectin-3-mediated invasion of SW620 cells through HUVECs [4]: significant inhibition
- Inhibition of galectin-3-induced tubule numbers [5]: significant inhibition
- Inhibition of galectin-3-induced vascular tubule length [5]: significant inhibition
- Cytotoxicity to HUVEC cells (LDH release) (vascular HUVECs; at 100 μM): no detectable cytotoxicity
- Cytotoxicity to HUVEC cells (LDH release) (vascular HUVECs; various concentrations): low cytotoxicity
